# Measurements reported in article PMC3064998, “In Vitro Selection of Cathepsin E-Activity-Enhancing Peptide Aptamers at Neutral pH” (International Journal of Peptides, 2011).
# Ends that are not written are not given here.
# T1: cathepsin E (Rattus norvegicus, UniProt P16228)
# T1 construct: The enzyme CatE was prepared from rat spleen according to the method previously described; from tissue; host or cells: rat spleen
# T1 sequence (P16228 59-398): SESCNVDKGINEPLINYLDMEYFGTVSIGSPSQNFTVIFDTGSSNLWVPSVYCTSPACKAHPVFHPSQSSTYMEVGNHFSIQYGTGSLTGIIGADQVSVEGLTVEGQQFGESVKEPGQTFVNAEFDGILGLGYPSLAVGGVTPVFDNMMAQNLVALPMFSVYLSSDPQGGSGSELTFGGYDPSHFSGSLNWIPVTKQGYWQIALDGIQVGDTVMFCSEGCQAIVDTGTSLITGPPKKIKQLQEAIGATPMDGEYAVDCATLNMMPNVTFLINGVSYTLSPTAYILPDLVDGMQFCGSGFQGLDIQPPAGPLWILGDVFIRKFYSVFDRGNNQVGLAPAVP
# T2: S3 (p4038) peptide aptamer
# T2 chain: IGCEERSFPNIIIIIG
# T3: P1 (p2006) peptide aptamer
# T3 chain: VGCDFMYV
# T4: P3 (p3006) peptide aptamer
# T4 chain: IEGRVGCDFMYVG
# Columns and labels:
# cathepsin E = target: T1, cathepsin E; test: SPR (Biacore 2000) measurement of KD; details: CatE immobilized on CM5 chip, running buffer 50 mM Tris-HCl, 100 mM NaCl, pH 7.4, four peptide concentrations, 1:1 binding with mass transfer model, unit M printed in b35 only, read-out: KD (dissociation constant)
# Procedure: (§1) A fluorogenic substrate susceptible at neutral pH to the protease cathepsin E, which usually functions at acidic pH, was designed as per reference: [Nma-Gly-Gly-Arg-Arg-Ser-Gly-Thy-Cys-Gly(Dnp)-D-Arg-NH2]. The peptide was custom-synthesized at Peptide Institute (Osaka, Japan) and confirmed to be an effective substrate at pH 7.4. The peptide was dissolved in dimethyl sulfoxide (DMSO) at 10 mM and stored in a deep freezer until use. The enzyme CatE was prepared from rat spleen according to the method previously described and immobilized on N-hydroxysuccinimide-activated sepharose beads (GE Healthcare, USA) using the amine-coupling method and stored in, 100 mM phosphate buffer (pH 7.4) at 4°C.
# An SPR instrument, Biacore 2000 (GE Healthcare, UK), was used for measuring KD for the binding of cathepsin E and selected peptides. Cathepsin E was immobilized onto Biacore sensor chip CM5 (GE Healthcare, UK) by the amine-coupling method using an Amine Coupling Kit (GE Healthcare, UK). Immobilization of cathepsin E was performed using running buffer (50 mM sodium acetate, 100 mM NaCl, pH 4.5). To determine dissociation constants, four different concentrations of selected peptides were used for the interaction. […] The binding data were analyzed with the 1 : 1 binding with mass transfer model in the BIAevaluation software version 4 : 1 (Biacore).
# cathepsin E (CatE) = test: CatE-activity-enhancement assay at neutral pH (fluorogenic substrate); type: biochemical, rat; details: pH 7.4; for Activities (%) Asy (CatE activity with chemically synthesized peptide): CatE 20 nM : peptide 1:1; for Activities (%) Asy (CatE activity with chemically synthesized peptide) / Activities (%) Adp (CatE activity with in vitro translated peptide): 50 mM Tris-HCl, 100 mM NaCl, preincubation 25°C 10 min, substrate 5 μM, 37°C 1 h, fluorescence ex 340/em 440 nm, 100% = CatE + substrate without peptide; for Activities (%) Adp (CatE activity with in vitro translated peptide): CatE 20 nM : peptide 1:1 (20 nM), three independent experiments
# Procedure: as §1
# CatE-activation by peptide aptamers was assayed by the method described previously but with a few modifications. Briefly, the CatE (20 nM) solution preincubated with a peptide aptamer in a 1 : 1 molar ratio in the selection buffer (50 mM Tris-HCl, 100 mM NaCl, pH 7.4) at 25°C for 10 min. was combined with the fluorogenic substrate (5 μM) and the enzyme reaction performed at 37°C for 1 h. The reaction product was measured by fluorescence intensity at 440 nm with an excitation wavelength of 340 nm using a fluorescence microplate reader, Infinite 200 (Tecan, Japan). The percentage of activation (A) was calculated by fitting the data to the following equation:
# (1) A=100×Sf−Bf/Cf−Bf [% activation], where Sf represents the fluorescence intensity of the positive reaction consisting of the enzyme (CatE), the fluorogenic substrate, and a possible peptide activator; C f is that of the control reaction mixture consisting of CatE and fluorogenic substrate (without peptide activator); B f is the background fluorescence of the negative reaction mixture consisting of only the fluorogenic substrate.
# [1] = target: T2, S3 (p4038) peptide aptamer; test: SPR
# [2] = target: T3, P1 (p2006) peptide aptamer; test: SPR
# [3] = target: T4, P3 (p3006) peptide aptamer; test: SPR
Kd (cathepsin E) [nM],Molecule,Activities (%) Asy (CatE activity with chemically synthesized peptide) (cathepsin E (CatE)) [%],Activities (%) Adp (CatE activity with in vitro translated peptide) (cathepsin E (CatE)) [%],further results
334,IEGRVGCDFMYVG [P3],–,–,–
389,IGCEERSFPNIIIIIG [S3],–,–,–
–,KGPPPCPC [P2],110 ± 4,128 ± 20,enhancement of CatE-activity (increase over control) (cathepsin E (CatE); in vitro translation synthesized peptides): 10 to 30%
–,PGIKPPPCIIIIG [S2],144.5 ± 11,180 ± 10,–
–,SPIISHIVGCDPPSCG [S1],–,160 ± 20,–
–,Cathepsin E (protein) SESCNVDKGINEPLINYLDMEYFGTVSIGSPSQNFTVIFDTGSSNLWVPSVYCTSPACKAHPVFHPSQSSTYMEVGNHFSIQYGTGSLTGIIGADQVSVEGLTVEGQQFGESVKEPGQTFVNAEFDGILGLGYPSLAVGGVTPVFDNMMAQNLVALPMFSVYLSSDPQGGSGSELTFGGYDPSHFSGSLNWIPVTKQGYWQIALDGIQVGDTVMFCSEGCQAIVDTGTSLITGPPKKIKQLQEAIGATPMDGEYAVDCATLNMMPNVTFLINGVSYTLSPTAYILPDLVDGMQFCGSGFQGLDIQPPAGPLWILGDVFIRKFYSVFDRGNNQVGLAPAVP,–,–,Kd [1]: 389 nM; Kd [2]: ~10000 nM; Kd [3]: 334 nM
